Results as given in ChEMBL document CHEMBL1201862, “PubChem BioAssay data set” (2004).
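Method: 48-hour compound exposure of cells in 96-well plates, five concentrations, linear interpolation of endpoints. At the GI50, growth is halved.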 Activity calls are given as the source filed them. Rule as the data show it: active = GI50 up to about 1.1 µM and inactive = higher.

Assays:
Test in all cases: inhibition of tumour cell growth, NCI panel, 48 h
786-0 = system: 786-0
A549 = system: A549
ACHN = system: ACHN
CCRF-CEM = system: CCRF-CEM
HCT-116 = system: HCT-116
HCT-15 = system: HCT-15
HL-60 = system: HL-60
HOP-62 = system: HOP-62
HT-29 = system: HT-29
LOX IMVI = system: LOX IMVI
M14 = system: M14
MCF7 = system: MCF7
Malme-3M = system: Malme-3M
NCI-H226 = system: NCI-H226
OVCAR-3 = system: OVCAR-3
OVCAR-5 = system: OVCAR-5
OVCAR-8 = system: OVCAR-8
SF-268 = system: SF-268
SNB-75 = system: SNB-75
UACC-257 = system: UACC-257

SMILES | GI50 (786-0) | GI50 (A549) | GI50 (ACHN) | GI50 (CCRF-CEM) | GI50 (HCT-116) | GI50 (HCT-15) [µM] | GI50 (HL-60) | GI50 (HOP-62) | GI50 (HT-29) | GI50 (LOX IMVI) | GI50 (M14) | GI50 (MCF7) | GI50 (Malme-3M) | GI50 (NCI-H226) | GI50 (OVCAR-3) | GI50 (OVCAR-5) | GI50 (OVCAR-8) | GI50 (SF-268) | GI50 (SNB-75) | GI50 (UACC-257)
COC1=C2CC(C)CC(OC)[C@@H](OC(=O)CCN)[C@H](C)/C=C(\C)C(OC(N)=O)C(OC)/C=C\C=C(/C)C(=O)NC(=CC1=O)C2=O (stereo not given in full) | 1.05 µM (active) | 15.7 µM (inactive) | 0.773 µM (active) | 0.343 µM (active) | 1.82 µM (inactive) | 2.43 | 0.256 µM (active) | 6.38 µM (inactive) | 0.465 µM (active) | 0.897 µM (active) | 4.88 µM (inactive) | 0.528 µM (active) | 0.735 µM (active) | 20.4 µM (inactive) | 0.843 µM (active) | 8.57 µM (inactive) | 1.9 µM (inactive) | 9.06 µM (inactive) | 20.8 µM (inactive) | 1.43 µM (inactive)
CC(=O)c1c(SCCN2CCOCC2)n(-c2ccccc2)c(=S)n(-c2ccccc2)c1=O | 11.5 µM (inactive) | 35.2 µM (inactive) | 14.8 µM (inactive) | 10.8 µM (inactive) | 16.1 µM (inactive) | 19.5 | 28.5 µM (inactive) | 26.2 µM (inactive) | 23.8 µM (inactive) | 8.39 µM (inactive) | 16.1 µM (inactive) | 2.21 µM (inactive) | 28.2 µM (inactive) | > 53.1 µM (inactive) | 14.8 µM (inactive) | > 100 µM (inactive) | 19.3 µM (inactive) | 20.2 µM (inactive) | 22.3 µM (inactive) | 15.4 µM (inactive)
CSc1nnc(SC)nn1 | 13.8 µM (inactive) | 20.9 µM (inactive) | 16.8 µM (inactive) | 1.81 µM (inactive) | 11 µM (inactive) | 19.2 | 3.65 µM (inactive) | 15.3 µM (inactive) | 18.9 µM (inactive) | 19.6 µM (inactive) | 15.5 µM (inactive) | 17 µM (inactive) | 13 µM (inactive) | 32.4 µM (inactive) | 16.2 µM (inactive) | 18.1 µM (inactive) | 18.6 µM (inactive) | 15.9 µM (inactive) | 17.4 µM (inactive) | 16.6 µM (inactive)
COc1ccc(Cn2c(=O)c(OC)c(C)c3cc4ccccc4cc32)cc1 | 33 µM (inactive) | 34.4 µM (inactive) | 34.6 µM (inactive) | 23.3 µM (inactive) | 18.6 µM (inactive) | 27 | 20 µM (inactive) | 45.6 µM (inactive) | 31.4 µM (inactive) | 18.4 µM (inactive) | 41.2 µM (inactive) | 33.7 µM (inactive) | 21.1 µM (inactive) | 45.7 µM (inactive) | 19.9 µM (inactive) | 54.5 µM (inactive) | 27.9 µM (inactive) | 39 µM (inactive) | 32.1 µM (inactive) | 2.99 µM (inactive)
CCC1CN2CCc3c([nH]c4ccccc34)[C@@](C(=O)OC)(c3cc4c(cc3OC)N(C)C3C(O)(C(=O)OC)C(C(=O)OC)C5(CC)C=CCN6CCC43C65)C[C@@H](C2)[C@@H]1C(C)(C)C (stereo not given in full) | 0.439 µM (active) | 0.649 µM (active) | 0.6 µM (active) | 0.348 µM (active) | 0.312 µM (active) | 0.396 | 0.305 µM (active) | 0.257 µM (active) | 0.328 µM (active) | 0.34 µM (active) | 0.401 µM (active) | 0.461 µM (active) | 0.486 µM (active) | 0.267 µM (active) | 0.316 µM (active) | 2.68 µM (inactive) | 0.5 µM (active) | 0.615 µM (active) | 0.337 µM (active) | 0.514 µM (active)
